{"source": "patent US5696083A", "about": "“Personal care composition containing pyrithione and polymyxin” (Olin Corporation, priority 1994, dated 1997)", "type_in_all_cases": "cell-based", "key": {"Aureobasidium pullulans": {"test_system": "Aureobasidium pullulans", "assay": "MIC in Tryptic Soy Broth, compounds alone and in mixtures", "details": "Table 1, 28° C., 6-7 days", "protocol": "(§1) Determinations of minimum inhibitory concentrations (MIC's) of the two compounds (pyrithione salts and/or polymyxin sulfate) in a nutrient broth (alone and in mixtures) were conducted to evaluate interactions. Stock solutions of pyrithione salts and/or polymyxin salts were diluted in Tryptic Soy Broth (Difco), and the dilutions were inoculated with an equal volume of bacterial culture (10^6 /ml) or fungal spore suspension (10^5 /ml) in Tryptic Soy Broth and incubated at 28° C. for 3-7 days.\n(§2) The interactions of the antimicrobials were determined according to accepted procedures (M. C. Berenbaum [Tables 1 and 2] and P. F. Dougherty \"Microdilution Transfer Plate Technique for Determining In Vitro Synergy of Antimicrobial Agents\", ANTIMICROBIAL AGENTS AND CHEMOTHERAPY, Vol. 11, No. 2, p. 225-228 (Feb. 1977, American Society for Microbiology) [Tables 3 and 4]). The concentration of each agent in the combination that inhibits the organisms is expressed as a fraction of the concentration that causes the same effect when the same agent is tested alone (i.e., its fractional inhibitory concentration, FIC). If the sum of the FIC's is 1, the combination is additive in its antimicrobial effect; if the sum is <1, the combination is synergistic; and if the sum is >1, the combination is antagonistic.\n(§3) ^a Compounds were serially diluted in Tryptic soy Broth (DIFCO),\n(§4) ^b Each dilution contained 10^6 bacteria/ml of 10^5 fungi/ml.\n(§5) ^a Stock solutions of ZP in dimethylsulfoxide and PB in sterile water"}, "Fusarium solani": {"test_system": "Fusarium solani", "assay": "MIC in Tryptic Soy Broth, compounds alone and in mixtures", "details": "Table 1, 28° C., 6-7 days", "protocol": "as §1, §2, §3, §4, §5"}, "Cephalosporium sp.": {"test_system": "Cephalosporium sp.", "assay": "MIC in Tryptic Soy Broth, compounds alone and in mixtures", "details": "Table 1, 28° C., 6-7 days", "protocol": "as §1, §2, §3, §4, §5"}, "Gliocladium virens": {"test_system": "Gliocladium virens", "assay": "MIC in Tryptic Soy Broth, compounds alone and in mixtures", "details": "Table 1, 28° C., 6-7 days", "protocol": "as §1, §2, §3, §4, §5"}, "Alcaligens faecalis": {"test_system": "Alcaligens faecalis", "assay": "MIC in Tryptic Soy Broth, compounds alone and in mixtures", "details": "Table 1, 28° C., 3 days", "protocol": "as §1, §2, §3, §4, §5"}, "Pseudomonas oleovorans": {"test_system": "Pseudomonas oleovorans", "assay": "MIC in Tryptic Soy Broth, compounds alone and in mixtures", "details": "Table 1, 28° C., 3 days", "protocol": "as §1, §2, §3, §4, §5"}, "Citrobacter freundii": {"test_system": "Citrobacter freundii", "assay": "MIC in Tryptic Soy Broth, compounds alone and in mixtures", "details": "Table 1, 28° C., 3 days", "protocol": "as §1, §2, §3, §4, §5"}, "Proteus mirabilis [1]": {"test_system": "Proteus mirabilis", "assay": "MIC in Tryptic Soy Broth, compounds alone and in mixtures", "details": "Table 1, 28° C., 3 days", "protocol": "as §1, §2, §3, §4, §5"}, "Pseudomonas Stutzeri": {"test_system": "Pseudomonas Stutzeri", "assay": "MIC in Tryptic Soy Broth, compounds alone and in mixtures", "details": "Table 1, 28° C., 3 days", "protocol": "as §1, §2, §3, §4, §5"}, "Aspergillus niger": {"test_system": "Aspergillus niger", "assay": "MIC in Tryptic Soy Broth, compounds alone and in mixtures", "details": "Table 1, 28° C., 6-7 days", "protocol": "as §1, §2, §3, §4, §5"}, "Penicillin pinophilium": {"test_system": "Penicillin pinophilium", "assay": "MIC in Tryptic Soy Broth, compounds alone and in mixtures", "details": "Table 1, 28° C., 6-7 days", "protocol": "as §1, §2, §3, §4, §5"}, "Pseudomonas aeruginosa [2]": {"test_system": "Pseudomonas aeruginosa", "assay": "MIC in Tryptic Soy Broth, compounds alone and in mixtures", "details": "Table 1, 28° C., 3 days", "protocol": "as §1, §2, §3, §4, §5"}, "Chaetomium globosium": {"test_system": "Chaetomium globosium", "assay": "MIC in Tryptic Soy Broth, compounds alone and in mixtures", "details": "Table 1, 28° C., 6-7 days", "protocol": "as §1, §2, §3, §4, §5"}, "Candida albicans [3]": {"test_system": "Candida albicans", "assay": "MIC in Tryptic Soy Broth, compounds alone and in mixtures", "details": "Table 1, 28° C., 6-7 days", "protocol": "as §1, §2, §3, §4, §5"}, "Pseudomonas fluorescens [4]": {"test_system": "Pseudomonas fluorescens", "assay": "MIC in Tryptic Soy Broth, compounds alone and in mixtures", "details": "Table 1, 28° C., 3 days", "protocol": "as §1, §2, §3, §4, §5"}, "Pseudomonas rubescens": {"test_system": "Pseudomonas rubescens", "assay": "MIC in Tryptic Soy Broth, compounds alone and in mixtures", "details": "Table 1, 28° C., 3 days", "protocol": "as §1, §2, §3, §4, §5"}, "[5]": {"test_system": "Trichophyton mentagrophytes", "assay": "MIC in Tryptic Soy Broth, compounds alone and in mixtures", "details": "Table 1, 28° C., 6-7 days", "protocol": "as §1, §2, §3, §4, §5"}, "Proteus mirabilis [6]": {"test_system": "Proteus mirabilis", "assay": "Checkerboard MIC Test in Tryptic Soy Broth", "details": "Table 3, 28° C., 3 days", "protocol": "as §1, §2, §4"}, "Pseudomonas aeruginosa [7]": {"test_system": "Pseudomonas aeruginosa", "assay": "Checkerboard MIC Test in Tryptic Soy Broth", "details": "Table 3, 28° C., 3 days", "protocol": "as §1, §2, §4"}, "Candida albicans [8]": {"test_system": "Candida albicans", "assay": "Checkerboard MIC Test in Tryptic Soy Broth", "details": "Table 3, 28° C., 5 days", "protocol": "as §1, §2, §4"}, "Pseudomonas fluorescens [9]": {"test_system": "Pseudomonas fluorescens", "assay": "Checkerboard MIC Test in Tryptic Soy Broth", "details": "Table 3, 28° C., 3 days", "protocol": "as §1, §2, §4"}, "[10]": {"test_system": "Trichophyton mentagrophytes", "assay": "Checkerboard MIC Test in Tryptic Soy Broth", "details": "Table 3, 28° C., 5 days", "protocol": "as §1, §2, §4"}, "[11]": {"details": "alone, Tryptic Soy Broth, PB sulfate 7610 units/mg"}, "[12]": {"details": "concentration of the component in SP+PB mixture, SP/PB ratio 1/20-1/10"}, "[13]": {"details": "concentration of the component in SP+PB mixture, SP/PB ratio 1"}, "[14]": {"details": "concentration of the component in SP+PB mixture, SP/PB ratio 650"}, "[15]": {"details": "alone, checkerboard, PE methanesulfonate, Na+, 14,310 units/mg"}}}
{"smiles": "[Na+].[O-][n+]1ccccc1[S-]", "note": "[SP, sodium pyrithione]", "values": [{"measurement": "Minimum Inhibitory Concentration, Compound Used Alone", "setting": "Aureobasidium pullulans; [11]", "result": 15.2, "unit": "ppm"}, {"measurement": "Minimum Inhibitory Concentration, Mixture", "setting": "Aureobasidium pullulans; [12]", "result": 5.1, "unit": "ppm"}, {"measurement": "Minimum Inhibitory Concentration, Compound Used Alone", "setting": "Fusarium solani; [11]", "result": 243.8, "unit": "ppm"}, {"measurement": "Minimum Inhibitory Concentration, Mixture", "setting": "Fusarium solani; [13]", "result": 40.6, "unit": "ppm"}, {"measurement": "Minimum Inhibitory Concentration, Compound Used Alone", "setting": "Cephalosporium sp.; [11]", "result": 50.8, "unit": "ppm"}, {"measurement": "Minimum Inhibitory Concentration, Mixture", "setting": "Cephalosporium sp.; [13]", "result": 15.2, "unit": "ppm"}, {"measurement": "Minimum Inhibitory Concentration, Compound Used Alone", "setting": "Gliocladium virens; [11]", "result": 108.3, "unit": "ppm"}, {"measurement": "Minimum Inhibitory Concentration, Mixture", "setting": "Gliocladium virens; concentration of the component in SP+PB mixture, SP/PB ratio 1/10-1", "result": 15.2, "unit": "ppm"}, {"measurement": "Minimum Inhibitory Concentration, Compound Used Alone", "setting": "Alcaligens faecalis; [11]", "result": 30.5, "unit": "ppm"}, {"measurement": "Minimum Inhibitory Concentration, Mixture", "setting": "Alcaligens faecalis; concentration of the component in SP+PB mixture, SP/PB ratio 5-41", "result": 9.3, "unit": "ppm"}, {"measurement": "Minimum Inhibitory Concentration, Compound Used Alone", "setting": "Pseudomonas oleovorans; [11]", "result": 12.7, "unit": "ppm"}, {"measurement": "Minimum Inhibitory Concentration, Mixture", "setting": "Pseudomonas oleovorans; [14]", "result": 3.2, "unit": "ppm"}, {"measurement": "Minimum Inhibitory Concentration, Compound Used Alone", "setting": "Citrobacter freundii; [11]", "result": 12.7, "unit": "ppm"}, {"measurement": "Minimum Inhibitory Concentration, Mixture", "setting": "Citrobacter freundii; concentration of the component in SP+PB mixture, SP/PB ratio 41-81", "result": 6.7, "unit": "ppm"}, {"measurement": "Minimum Inhibitory Concentration, Compound Used Alone", "setting": "Proteus mirabilis [1]; [11]", "result": 325.1, "unit": "ppm"}, {"measurement": "Minimum Inhibitory Concentration, Mixture", "setting": "Proteus mirabilis [1]; concentration of the component in SP+PB mixture, SP/PB ratio 1/20-1", "result": 61.0, "unit": "ppm"}, {"measurement": "Minimum Inhibitory Concentration, Compound Used Alone", "setting": "Pseudomonas Stutzeri; [11]", "result": 81.3, "unit": "ppm"}, {"measurement": "Minimum Inhibitory Concentration, Mixture", "setting": "Pseudomonas Stutzeri; concentration of the component in SP+PB mixture, SP/PB ratio 325-650", "result": 40.6, "unit": "ppm"}, {"measurement": "Minimum Inhibitory Concentration, Compound Used Alone", "setting": "Aspergillus niger; [11]", "result": 121.9, "unit": "ppm"}, {"measurement": "Minimum Inhibitory Concentration, Mixture", "setting": "Aspergillus niger; concentration of the component in SP+PB mixture, SP/PB ratio 1/10", "result": 40.6, "unit": "ppm"}, {"measurement": "Minimum Inhibitory Concentration, Compound Used Alone", "setting": "Penicillin pinophilium; [11]", "result": 20.3, "unit": "ppm"}, {"measurement": "Minimum Inhibitory Concentration, Mixture", "setting": "Penicillin pinophilium; [12]", "result": 5.1, "unit": "ppm"}, {"measurement": "Minimum Inhibitory Concentration, Compound Used Alone", "setting": "Pseudomonas aeruginosa [2]; [11]", "result": 162.6, "unit": "ppm"}, {"measurement": "Minimum Inhibitory Concentration, Mixture", "setting": "Pseudomonas aeruginosa [2]; concentration of the component in SP+PB mixture, SP/PB ratio 163-325", "result": 81.3, "unit": "ppm"}, {"measurement": "Minimum Inhibitory Concentration, Compound Used Alone", "setting": "Chaetomium globosium; [11]", "result": 12.7, "unit": "ppm"}, {"measurement": "Minimum Inhibitory Concentration, Mixture", "setting": "Chaetomium globosium; concentration of the component in SP+PB mixture, SP/PB ratio 1/10-1/5", "result": 3.8, "unit": "ppm"}, {"measurement": "Minimum Inhibitory Concentration, Compound Used Alone", "setting": "Candida albicans [3]; [11]", "result": 33.9, "unit": "ppm"}, {"measurement": "Minimum Inhibitory Concentration, Mixture", "setting": "Candida albicans [3]; [12]", "result": 6.7, "unit": "ppm"}, {"measurement": "Minimum Inhibitory Concentration, Compound Used Alone", "setting": "Pseudomonas fluorescens [4]; [11]", "result": 135.5, "unit": "ppm"}, {"measurement": "Minimum Inhibitory Concentration, Mixture", "setting": "Pseudomonas fluorescens [4]; concentration of the component in SP+PB mixture, SP/PB ratio 3-10", "result": 6.7, "unit": "ppm"}, {"measurement": "Minimum Inhibitory Concentration, Compound Used Alone", "setting": "Pseudomonas rubescens; [11]", "result": 23.7, "unit": "ppm"}, {"measurement": "Minimum Inhibitory Concentration, Mixture", "setting": "Pseudomonas rubescens; [14]", "result": 2.5, "unit": "ppm"}, {"measurement": "Minimum Inhibitory Concentration, Compound Used Alone", "setting": "[5]; [11]", "result": 20.3, "unit": "ppm"}, {"measurement": "Minimum Inhibitory Concentration, Mixture", "setting": "[5]; concentration of the component in SP+PB mixture, SP/PB ratio 1/10-1/3", "result": 8.5, "unit": "ppm"}, {"measurement": "Minimum Inhibitory Concentration, Compound Used Alone", "setting": "Proteus mirabilis [6]; [15]", "result": 512, "unit": "ppm"}, {"measurement": "Minimum Inhibitory Concentration, Mixture Range", "setting": "Proteus mirabilis [6]; concentration of the component in SP+PE mixtures, SP/PE range 1/16-4", "result": 256, "unit": "ppm"}, {"measurement": "Minimum Inhibitory Concentration, Compound Used Alone", "setting": "Pseudomonas aeruginosa [7]; [15]", "result": 128, "unit": "ppm"}, {"measurement": "Minimum Inhibitory Concentration, Mixture Range", "setting": "Pseudomonas aeruginosa [7]; concentration of the component in SP+PE mixtures, SP/PE range 4-16", "result": "32-64 ppm"}, {"measurement": "Minimum Inhibitory Concentration, Compound Used Alone", "setting": "Candida albicans [8]; [15]", "result": 32, "unit": "ppm"}, {"measurement": "Minimum Inhibitory Concentration, Mixture Range", "setting": "Candida albicans [8]; concentration of the component in SP+PE mixtures, SP/PE range 1/2048-1/4", "result": "1-16 ppm"}, {"measurement": "Minimum Inhibitory Concentration, Compound Used Alone", "setting": "Pseudomonas fluorescens [9]; [15]", "result": 128, "unit": "ppm"}, {"measurement": "Minimum Inhibitory Concentration, Mixture Range", "setting": "Pseudomonas fluorescens [9]; concentration of the component in SP+PE mixtures, SP/PE range ≤1/128-8", "result": "≤1-32 ppm"}, {"measurement": "Minimum Inhibitory Concentration, Compound Used Alone", "setting": "[10]; [15]", "result": 32, "unit": "ppm"}, {"measurement": "Minimum Inhibitory Concentration, Mixture Range", "setting": "[10]; concentration of the component in SP+PE mixtures, SP/PE range 1/2-8", "result": "16-32 ppm"}]}
